Here are results for 24 molecules from patent publication US9802949B2, “Fused ring compounds as hepatitis C virus inhibitors, pharmaceutical compositions and uses thereof” (SUNSHINE LAKE PHARMA CO., LTD., priority 2012, dated 2017).

One assay has as its system HCV GT1a replicon. Briefly: HCV replicon assay (Huh-7 cells stably transfected with HCV GT1a replicon; luciferase or NEO gene qPCR readout). In kind it is cell-based. The conditions noted are these: Hepatitis C virus, HCV 1a genotype replicon, 72 hours. As for the experimental part:
(§1) HCV Replicon System was utilized as a screening model in the present disclosure to evaluate the antivirus effects of the compounds disclosed herein against HCV. HCV Replicon assay was first described in Science, 1999, 285 (5424), 110-3. […] To determine the potential anti-HCV effects of the test compounds, luciferase assay and antibiotic Neomycin resistance gene were tested according to the method described in Science. 1999 Jul. 2; 285 (5424), 110-3 and J. Virol. 2003 March; 77 (5), 3007-19.
(§2) In a word, the compounds disclosed herein were tested by using human hepatic carcinoma cell line Huh-7 which is transfected stably with HCV GT1a, GT1b or GT2a replicon respectively, and resistant cells of Y93H, L31F, P32L or I302V and wild-type cells HCV 1b. HCV Replicon System disclosed herein contains G418 resistance gene NEO and Luciferase Reporter Gene, and the level of HCV replication in host cells is detected and characterized by the expression level of the NEO gene or Luciferase Reporter Gene, so the effects of the compounds herein inhibit HCV replication can be evaluated in this system. In this article, a real-time quantitative polymerase chain reaction (qPCR) method was used to detect NEO gene expression level, and chemiluminescence method was used to test Luciferase Reporter Gene expression level.
(§3) 1. Test Method for Measuring EC50 of the Compounds Based on Luciferase Assay.
(§4) The Huh-7 cells transfected with HCV replicons system were seeded into 96-well plates (8,000 cells in 125 μL/well) respectively; each test compound was diluted to desired concentration using 5-fold serial dilutions protocol, 10 doses in duplicate, and added to wells with POD™ 810 Plate Assembler. The plates were incubated in a CO2 incubator for 72 hours; after that, 40 μL of Luciferase assay substrate (Promega Bright-Glo) was added to each well, and detected by a chemiluminescence detection system (Topcount Microplate Scintillation and Luminescence Counter) 5 minutes later; the EC50 (half-maximal effective concentration, concentration for 50% of maximal effect) values of test compounds were analyzed by GraphPad Prism software. In this paper, experiments were repeated twice and set the wells without compounds as negative control.
(§5) 2. Test Method for Measuring EC50 of the Compounds by Detecting Antibiotic G418 Resistance Gene NEO Gene.
(§6) The Huh-7 cells transfected with HCV replicons system were seeded into 96-well plates (8,000 cells in 125 μL/well) respectively; each test compound was diluted to desired concentration using 5-fold serial dilutions protocol, 10 doses in duplicate, and added to each well with POD™ 810 Plate Assembler; the cells were incubated in a CO2 incubator for 72 hours; and detected the expression level of the NEO gene expression with real-time quantitative PCR later; the EC50 (half-maximal effective concentration, concentration for 50% of maximal effect) values of test compounds were analyzed by GraphPad Prism software, respectively. In this paper, experiments were repeated twice and set the wells without compounds as negative control.
A general note: In antiviral work, replicon cells carry a viral genome segment that copies itself.

The test system of the next assay is HCV GT1b replicon. Briefly: HCV replicon assay (Huh-7 cells stably transfected with HCV GT1b replicon; luciferase or NEO gene qPCR readout). It counts as cell-based. To be noted: Hepatitis C virus, HCV 1b genotype replicon, 72 hours. The procedure:
as §1, §2, §3, §4, §5, §6

The term EC50 denotes the concentration needed to bring the measured effect to its halfway point. A high value points to lower potency in that assay.

For `COC(=O)N[C@H](C(=O)N1CCC[C@H]1c1ncc(-c2ccc(-c3ncc(-c4ccc5nc([C@@H]6CCCN6C(=O)[C@@H](NC(=O)OC)C(C)C)[nH]c5c4)c4c3C3CCC3C4)cc2)[nH]1)C(C)C` (stereo partly drawn) [Example 25], the EC50 with HCV GT1a replicon is 0.065 nM; with HCV GT1b replicon it was 0.032 nM.
For `COC(=O)N[C@H](C(=O)N1CCC[C@H]1c1ncc(-c2ccc(-c3ccc(-c4ccc5nc([C@@H]6CC7CC7N6C(=O)[C@@H](NC(=O)OC)C(C)C)[nH]c5c4)c4c3C3CCC3C4)cc2)[nH]1)C(C)C` (stereo partly drawn) [Example 11], the concentration for a half-maximal effect (EC50) in the assay on HCV GT1a replicon amounted to 0.051 nM; in the assay on HCV GT1b replicon it was 0.033 nM.
With `COC(=O)N[C@H](C(=O)N1CCC[C@H]1c1ncc(-c2ccc(-c3ccc(-c4cnc([C@@H]5CCCN5C(=O)[C@@H](NC(=O)OC)C(C)C)[nH]4)c4c3C3CCCC3C4C)cc2)[nH]1)C(C)C` (stereo partly drawn) [Example 33], the EC50 came to 0.082 nM in the assay on HCV GT1a replicon and 0.03 nM in the assay with HCV GT1b replicon.
For `COC(=O)N[C@H](C(=O)N1CCC[C@H]1c1nc2ccc(-c3ccc(-c4ccc(-c5cnc([C@@H]6CC7CC7N6C(=O)[C@@H](NC(=O)OC)C(C)C)[nH]5)cc4)c4c3CC3CCC43)cc2[nH]1)C(C)C` (stereo partly drawn) [Example 3], in that order: 0.088 nM and 0.018 nM.
For `COC(=O)N[C@H](C(=O)N1CCC[C@H]1c1ncc(-c2ccc(-c3ccc(-c4ccc5nc([C@@H]6CCCN6C(=O)[C@@H](NC(=O)OC)C(C)C)[nH]c5c4)c4c3C3CCC3C4)nc2)[nH]1)C(C)C` (stereo partly drawn) [Example 8] the same measures were 0.066 nM and 0.028 nM.
Take `CC(C)[C@H](NC(=O)Oc1ccccc1)C(=O)N1CC(C)(C)C[C@H]1c1ncc(-c2ccc(-c3ccc(-c4ccc5nc([C@@H]6CC(C)(C)CN6C(=O)[C@@H](NC(=O)Oc6ccccc6)C(C)C)[nH]c5c4)c4c3C3CCC3C4)cc2)[nH]1` (stereo partly drawn) [Example 16]: the concentration giving a half-maximal response (EC50) in the assay with HCV GT1a replicon was 2.55 nM; in the assay on HCV GT1b replicon it was 0.879 nM.
Regarding `COC(=O)N[C@H](C(=O)N1CCC[C@H]1c1nc2ccc(-c3ccc(-c4ccc(-c5cnc([C@@H]6C7CCC(C7)N6C(=O)[C@@H](NC(=O)OC)C(C)C)[nH]5)cc4)c4c3C3CCC3C4)cc2[nH]1)C(C)C` (stereo partly drawn) [Example 2], the EC50 in the assay on HCV GT1a replicon was 0.071 nM; in the assay on HCV GT1b replicon it was 0.021 nM.
With `COC(=O)N[C@H](C(=O)N1CC(F)(F)C[C@H]1c1ncc(-c2ccc(-c3ccc(-c4ccc5[nH]c([C@@H]6CC(F)(F)CN6C(=O)[C@@H](NC(=O)OC)C(C)C)nc5c4)c4c3C3CCC3C4)cc2)[nH]1)C(C)C` (stereo partly drawn) [Example 12], the EC50 in the assay with HCV GT1a replicon worked out at 0.08 nM; in the assay with HCV GT1b replicon, 0.027 nM.
For `COC(=O)N[C@H](C(=O)N1CCC[C@H]1c1cc(=O)c2cc(-c3ccc(-c4ccc(-c5cnc([C@@H]6CCCN6C(=O)[C@@H](NC(=O)OC)c6ccccc6)[nH]5)cc4)c4c3C3(C)CCC3C4)ccc2[nH]1)c1ccccc1` (stereo partly drawn) [Example 30] the same measures were 0.211 nM and 0.092 nM.
For the molecule `COC(=O)N[C@H](C(=O)N1CC2(CC2)C[C@H]1c1ncc(-c2ccc(-c3ccc(-c4ccc5nc([C@@H]6CC7(CC7)CN6C(=O)[C@@H](NC(=O)OC)C(C)C)[nH]c5c4)c4c3C3CCC3C4)cc2)[nH]1)C(C)C` (stereo partly drawn) [Example 17], the EC50 in the assay with HCV GT1a replicon is 0.062 nM; in the assay on HCV GT1b replicon it was 0.078 nM.
For `COC(=O)N[C@H](C(=O)N1C[C@@H](C)C[C@H]1c1ncc(-c2ccc(-c3ccc(-c4ccc5nc([C@@H]6C[C@H](C)CN6C(=O)[C@@H](NC(=O)OC)C(C)C)[nH]c5c4)c4c3C3CCC3C4)cc2)[nH]1)C(C)C` (stereo partly drawn) [Example 14] the same measures were 0.003 nM and 0.001 nM.
For `CC[C@H](C)[C@H](NC(=O)OC)C(=O)N1CCC[C@H]1C1=Nc2ccc(-c3ccc(-c4ccc5nc([C@@H]6CCCN6C(=O)[C@@H](NC(=O)OC)C(C)C)[nH]c5c4)c4c3CC3CCCC43)cc2S(=O)(=O)N1` (stereo partly drawn) [Example 31], in that order: 0.083 nM and 0.035 nM.
For `COC(=O)N[C@H](C(=O)N1CCC[C@H]1c1ncc(C#Cc2ccc(-c3ccc4nc([C@@H]5CCCN5C(=O)[C@@H](NC(=O)OC)C(C)C)[nH]c4c3)c3c2C2CCC2C3)[nH]1)C(C)C` (stereo partly drawn) [Example 6], in that order: 0.243 nM and 0.106 nM.
In the case of `COC(=O)N[C@H](C(=O)N1CCC[C@H]1c1ncc(-c2ccc(-c3ccc(-c4cnc([C@@H]5CCCN5C(=O)[C@@H](NC(=O)OC)C(C)C)[nH]4)c4c3C3CCC3C4)cc2)[nH]1)C(C)C` (stereo partly drawn) [Example 1], the results for the EC50 in the assay on HCV GT1a replicon and in the assay with HCV GT1b replicon were 0.605 nM and 0.005 nM, respectively.
On to `COC(=O)N[C@H](C(=O)N1CC2(C[C@H]1c1ncc(-c3ccc(-c4ccc(-c5ccc6nc([C@@H]7CCCN7C(=O)[C@@H](NC(=O)OC)C(C)C)[nH]c6c5)c5c4C4CCC4C5)cc3)[nH]1)OCCO2)C(C)C` (stereo partly drawn) [Example 20], for which the EC50 with HCV GT1a replicon amounted to 0.429 nM; in the assay on HCV GT1b replicon it was 0.036 nM.
Take `COC(=O)N[C@H](C(=O)N1CCC[C@H]1c1nc(-c2ccc(-c3ccc(-c4ccc5nc([C@@H]6CCCN6C(=O)[C@@H](NC(=O)OC)C(C)C)[nH]c5c4)c4c3C3CCC3C4)c3c2CCC3)c[nH]1)C(C)C` (stereo partly drawn) [Example 22]: the EC50 in the assay with HCV GT1a replicon was 0.233 nM; with HCV GT1b replicon it was 0.082 nM.
For `COC(=O)NC(C(=O)N1CCCC1c1nc2ccc(-c3ccc(-c4ccc(-c5cnc(C6C7CCC(C7)N6C(=O)C(NC(=O)OC)C(C)C)[nH]5)cc4)c4c3C3CCC3C4)cc2[nH]1)C(C)C` (stereo not drawn) [Example 36] the same measures were 0.935 nM and 0.01 nM.
With `COC(=O)N[C@H](C(=O)N1CCC[C@H]1c1ncc(-c2ccc(-c3ccc(-c4ccc5nc([C@@H]6CCCN6C(=O)[C@@H](NC(=O)OC)C(C)C)[nH]c5c4)c4c3C3CCC3C4)cc2)[nH]1)C(C)C` (stereo partly drawn) [Example 4], the EC50 worked out at 0.06 nM with HCV GT1a replicon and 0.02 nM in the assay with HCV GT1b replicon.
For `COC(=O)N[C@H](C(=O)N1C[C@@H](F)C[C@H]1c1ncc(-c2ccc(-c3ccc(-c4ccc5nc([C@@H]6C[C@H](F)CN6C(=O)[C@@H](NC(=O)OC)C(C)C)[nH]c5c4)c4c3C3CCC3C4)cc2)[nH]1)C(C)C` (stereo partly drawn) [Example 9], in that order: 0.035 nM and 0.014 nM.
For `COC(=O)N[C@H](C(=O)N1CCC[C@H]1c1ncc(-c2ccc(-c3ccc(-c4ccc5nc([C@@H]6CCCN6C(=O)[C@@H](NC(=O)OC)C(C)C)[nH]c5c4)c4c3CC3CCC43)s2)[nH]1)C(C)C` (stereo partly drawn) [Example 7], in that order: 0.093 nM and 0.053 nM.
Take `COC(=O)N[C@H](C(=O)N1CCCC1c1nc2ccc(-c3ccc(-c4ccc5nc([C@@H]6CCCN6C(=O)[C@@H](NC(=O)OC)C(C)C)[nH]c5c4)c4c3C3C(=O)CCC3C4)cc2[nH]1)C(C)C` (stereo partly drawn) [Example 32]: the EC50 in the assay with HCV GT1a replicon is 0.063 nM; with HCV GT1b replicon, 0.026 nM.
For `COC(=O)N[C@H](C(=O)N1CCCC[C@H]1c1ncc(-c2ccc(-c3ccc(-c4ccc5nc([C@@H]6CCCCN6C(=O)[C@@H](NC(=O)OC)C(C)C)[nH]c5c4)c4c3C3CCC3C4)cc2)[nH]1)C(C)C` (stereo partly drawn) [Example 13], in that order: 0.418 nM and 0.206 nM.
For `COC(=O)N[C@H](C(=O)N1CCC[C@H]1C1=Nc2cc(-c3ccc(C#Cc4cnc([C@@H]5CCCN5C(=O)[C@@H](NC(=O)OC)C5CCCCC5)[nH]4)c4c3CC3C(=O)CC43)ccc2C(C)(C)N1)C1CCCCC1` (stereo partly drawn) [Example 29] the same measures were 7.55 nM and 0.309 nM.
For `COC(=O)N[C@H](C(=O)N1CCC[C@H]1c1ncc(-c2ccc(-c3ccc(-c4ccc5nc([C@@H]6CCCN6C(=O)[C@@H](NC(=O)OC)C(C)C)[nH]c(=O)c5c4)c4c3C3CC(F)(F)C3C4)cc2)[nH]1)C(C)C` (stereo partly drawn) [Example 28], in that order: 0.022 nM and 0.008 nM.
